Measured values published in ChEMBL document CHEMBL1201862, “PubChem BioAssay data set” (2004).
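Growth conditions: 96-well plates. Treatment: test compound, 48 hours, 5 concentrations. Analysis: linear interpolation between bracketing concentrations; unreached endpoints set to highest concentration. GI50 = concentration required for 50% inhibition of growth.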 The source made the active and inactive calls. Cut-off read from the data, not from the text of the source: active = GI50 up to about 1.1 µM and inactive = higher.

How the values were obtained:
Assay in all cases: growth of human tumour cells (NCI), 48 h
Malme-3M = test system: Malme-3M
A549 = test system: A549
SK-MEL-2 = test system: SK-MEL-2
CCRF-CEM = test system: CCRF-CEM
SF-295 = test system: SF-295
NCI-H460 = test system: NCI-H460
NCI-H522 = test system: NCI-H522
Hs-578T = test system: Hs-578T
SNB-19 = test system: SNB-19
OVCAR-5 = test system: OVCAR-5
DU-145 = test system: DU-145
HT-29 = test system: HT-29
KM12 = test system: KM12
ACHN = test system: ACHN
UACC-62 = test system: UACC-62
A498 = test system: A498
SF-539 = test system: SF-539
SNB-75 = test system: SNB-75
OVCAR-3 = test system: OVCAR-3

Measured: GI50

Cc1ccccc1/N=N/c1ccc(N/N=C2/CCCNC2=O)c(C)c1
inactive: Malme-3M > 100 µM | A549 68.1 µM | SK-MEL-2 > 100 µM | CCRF-CEM 9.46 µM | SF-295 > 100 µM | NCI-H460 > 100 µM | NCI-H522 31.2 µM | Hs-578T > 100 µM | SNB-19 > 100 µM | OVCAR-5 > 100 µM | DU-145 > 100 µM | HT-29 > 100 µM | KM12 > 100 µM | ACHN > 100 µM | UACC-62 > 100 µM | A498 > 100 µM

C=C(C)C(CC=C(C)C)CC12CC(CC=C(C)C)C(C)(C)C(CC=C(C)C)(C(=O)C(Cc3ccc(O)c(O)c3)=C1O)C2=O (centres undefined)
inactive: Malme-3M 57.8 µM | A549 > 100 µM | SF-539 > 100 µM | CCRF-CEM 59.6 µM | SF-295 > 100 µM | NCI-H460 > 100 µM | SNB-75 > 100 µM | NCI-H522 > 100 µM | Hs-578T > 100 µM | SNB-19 > 100 µM | OVCAR-5 > 100 µM | DU-145 > 100 µM | HT-29 > 100 µM | KM12 > 100 µM | OVCAR-3 > 100 µM | ACHN > 100 µM | UACC-62 85.3 µM | A498 74 µM

CC(C)OC(=O)[C@H]1ON2O[C@H](O[C@@H]3CCCC[C@H]3c3ccccc3)C([Si](C)(C)c3ccccc3)[C@H]3OC(=O)[C@@H]1C32 (some centres undefined)
inactive: A549 > 100 µM | SK-MEL-2 > 100 µM | SF-539 > 100 µM | CCRF-CEM 94 µM | SF-295 > 100 µM | NCI-H460 > 100 µM | SNB-75 > 100 µM | NCI-H522 81.3 µM | Hs-578T > 100 µM | SNB-19 > 100 µM | DU-145 > 100 µM | HT-29 > 100 µM | KM12 > 100 µM | OVCAR-3 > 100 µM | ACHN > 100 µM | UACC-62 > 100 µM | A498 > 100 µM

O=C(O)c1ccc(C=C2Sc3ccccc3S2)cc1
inactive: Malme-3M 84.7 µM | A549 43.2 µM | SK-MEL-2 29.4 µM | SF-539 > 100 µM | CCRF-CEM 55.5 µM | SF-295 33.5 µM | NCI-H460 50 µM | NCI-H522 26.1 µM | Hs-578T 24 µM | SNB-19 73.8 µM | OVCAR-5 66.1 µM | DU-145 > 100 µM | HT-29 43.5 µM | KM12 46.7 µM | OVCAR-3 30.3 µM | ACHN 22.6 µM | UACC-62 26.2 µM | A498 14.5 µM

CO/N=C(\C(=O)Nc1cncs1)c1csc(N)n1
inactive: Malme-3M > 10 µM | A549 > 10 µM | SF-539 > 10 µM | CCRF-CEM > 10 µM | SF-295 > 10 µM | NCI-H460 > 10 µM | SNB-75 > 10 µM | NCI-H522 > 10 µM | Hs-578T > 10 µM | SNB-19 > 10 µM | OVCAR-5 > 10 µM | DU-145 > 10 µM | HT-29 > 10 µM | KM12 > 10 µM | OVCAR-3 > 10 µM | ACHN > 10 µM | UACC-62 > 10 µM | A498 > 10 µM

CC(C)[C@@H]1CC[C@@H](C)C[C@H]1OC(=O)/C=C1/C2C=CC(O2)C1C(=O)O[C@@H]1C[C@H](C)CC[C@H]1C(C)C (some centres undefined)
inactive: Malme-3M > 100 µM | A549 > 100 µM | SF-539 > 100 µM | CCRF-CEM 45.5 µM | SF-295 65.3 µM | NCI-H460 89.1 µM | SNB-75 > 100 µM | NCI-H522 41.8 µM | Hs-578T > 100 µM | SNB-19 > 100 µM | OVCAR-5 > 100 µM | DU-145 > 100 µM | HT-29 48.5 µM | KM12 > 100 µM | OVCAR-3 > 100 µM | ACHN > 100 µM | UACC-62 > 100 µM | A498 > 100 µM

CC(=O)c1ccc(/N=N/N2CCCC2)cc1
inactive: SK-MEL-2 > 100 µM | SF-539 > 100 µM | CCRF-CEM > 100 µM | SF-295 > 100 µM | NCI-H460 > 100 µM | SNB-75 > 100 µM | NCI-H522 > 100 µM | Hs-578T > 100 µM | SNB-19 > 100 µM | OVCAR-5 > 100 µM | DU-145 > 100 µM | KM12 > 100 µM | OVCAR-3 > 100 µM | ACHN > 100 µM | UACC-62 > 100 µM | A498 15.9 µM

C=C1C(O)C[C@H](OC(C)=O)[C@]2(C)C1C(OC(C)=O)[C@]1(C(C)(C)O)CC(O)C(C)=C1[C@@H](OC(=O)c1ccccc1)C2OC(C)=O (some centres undefined)
inactive: A549 > 10 µM | SK-MEL-2 > 10 µM | SF-539 > 10 µM | CCRF-CEM > 10 µM | SF-295 > 10 µM | NCI-H460 > 10 µM | SNB-75 > 10 µM | NCI-H522 > 10 µM | Hs-578T > 10 µM | SNB-19 > 10 µM | OVCAR-5 > 10 µM | DU-145 > 10 µM | HT-29 > 10 µM | KM12 > 10 µM | OVCAR-3 > 10 µM | ACHN > 10 µM | UACC-62 > 10 µM | A498 > 10 µM
